Where “and” joins values, the source holds several entries; their conditions need not be identical. Identical values can stand only once. Entries after “also recorded” stand apart in the source; their conditions may differ.
Experiments:
[1] = tested on: CD4^+CD62L^+ naïve T cells; experiment: In vitro Th1 polarization: proliferation and cytokine production; format: cell-based, mouse
Experimental: Mouse splenocytes were first removed isolated from DO11.10 mice, which express an MHC class II restricted T cell receptor specific for OVA323-339. Mouse CD4^+ T cells were purified using a Miltenyi CD4^+ T cell negative isolation kit (Cat#130-090-860). […] CD4^+CD62L^+ naïve T cells with or without CD25^+ T cells were cultured in serum free HL-1 media in the presence of rIL-2 (1 ng/mL), rIL-12 (4 ng/mL) and anti-IL-4 (1 μg/mL). Activity of murine B7-H4-Ig was tested in a number of formats (soluble and insoluble presentation of B7-H4-Ig). Murine B7-H4-Ig was also assessed for activity on T cells activated non-specifically or with antigen-specific stimulation. To provide murine B7-H4-Ig in an immobilized format, 96-well flat bottom plates were first coated with murine B7-H4-Ig, 100 μl per well at 1 μg/mL, and incubated at 37° C. for 2 hours. […] For non-specific antigen activation, Mouse CD3/CD28 T Cell Expander beads (Dynabeads®; Invitrogen, Cat#11452D) were added into each well, at a 1:1 cell to bead ratio. For OVA specific activation, splenocytes were first isolated from Balb/C mice as antigen presenting cells (APC) followed by irradiation at 3000 rads for 45 minutes and then added into each well, at a 1:1, APC to responder cell, ratio. OVA323-339 peptide was added into the culture at 20 μg/mL. [^3H]-Thymidine (1 μCi/well) was added into each well 24 hr post co-incubation. Proliferation was determined by uptake of [^3H]-thymidine detected at 48 hr post [^3H]-thymidine addition using a Topcount Microplate Scintillation Counter (Packard Instruments, Meridan, Conn.). Results are expressed as the mean of triplicate cultures±SEM. Supernatants were collected from plates without [^3H]-Thymidine at 72 hr for cytokine analysis. Cytokine measurements were performed using the Mouse Cytokine 10-Plex system (Millipore) and Luminex Liquidchip analyzer (Qiagen, Valencia, Calif.) or ELISA. The human and mouse B7-H4 proteins are 95% homologous. Human B7-H4-Ig was tested for cross-reactivity with murine T cells. Naïve CD4^+ T cells were isolated as described above. Upon purification, murine naïve CD4^+ T cells were polarized in the presence of IL-2, IL-12 and anti-IL4 for Th1 cell-promoting conditions, or TGF-β, IL-6, IL-23, anti-IL4, anti-IFNγ and anti-IL-2 for Th17 cell-promoting conditions, as described in Example 5 for murine B7-H4-Ig in vitro bioactivity. Human B7-H4-Ig was directly added into the culture at 0, 0.1, 1 or 10 μg/mL. Human Control IgG1 (Synagis®) was added into the culture to bring the final protein concentration to 10 μg/mL. […] After depletion of CD4^+CD25^+ T cells, CD25^+/P3^+ cells were decreased from approximately 5% to 1%.

[2] = tested on: DBA/1 mice; experiment: Therapeutic CIA study AA#80 (male mice), disease score; format: in vivo, mouse; settings: for clinical score: individual mice sampled for serum analysis; for AA#80 CIA disease scores: individual mice (Tag #)
Experimental: DBA/1 mice (10 per group) aged 7-9 weeks were used for the CIA model. Mice from several vendors (Jackson Laboratories, Harlan Laboratories, and Taconic Farms) were tested and it was determined that Taconic mice are most appropriate for the CIA studies. Taconic mice develop more consistent and severe disease symptoms and show continued disease progression, while mice from the other vendors often show stable, less severe disease, even in the absence of treatment. female (F) mice in AA#79 and male (M) mice in AA#80, were tested to determine which gender to use in future experiments.
On the day before the study is initiated, the hair on the right flank of each mouse was removed using an electric clipper. A metal identification tag was placed on the right ear of each mouse. On Day 0, mice were immunized with 100 μL of chicken collagen type II/Complete Freund's Adjuvant (CII/CFA) emulsion in the right flank. On Day 20, the hair on the left flank of each mouse was removed using an electric clipper, and on Day 21, mice were immunized with 100 μL of chicken collagen type II/Incomplete Freund's Adjuvant (CII/IFA) emulsion in the left flank. Pre-filled syringes of CII/CFA and CII/IFA emulsion purchased from Hooke Laboratories were used to ensure consistent dosing with and potency of the immunogen.
Early arthritis symptoms, such as erythema and mild swelling, usually appear on Day 21, and on Day 28, more severe symptoms such as swelling in many digits and inflammation extending to the tarsal joint are typically present. Each limb is evaluated for severity of arthritis symptoms three times a week using a widely accepted arthritis severity score system, shown in Table 2. The scores from each of the 4 limbs are summed to yield the disease score of each mouse. […]
Treatment was initiated when the average disease score for the study animals was greater than four. This corresponded to Day 29 in AA#79 and Day 24 in […]. By waiting until animals are symptomatic, it was ensured that the model is performed in a therapeutic rather than prophylactic mode.
B7-H4-Ig, RPA110010, and murine B7-H4-Ig proteins were administered by intraperitoneal (IP) injection 3 times a week for a total of 8 doses. RPA110010 is an extracellular domain variant of B7-H4-Ig, SEQ ID NO:126. Control murine and human IgG proteins were given once a week for a total of 3 doses. […] All proteins were diluted to the desired concentration (500 μg in 500 μL, or 1 mg/mL) with sterile PBS immediately before injection. Vehicle control mice receive Amplimmune formulation buffer diluted 1:10 in PBS, with an injection volume of 500 μL.

B7-H4-Ig: B7-H4 extracellular domain fused to Ig Fc; bare label is the human protein in Example 3, murine protein in Examples 1, 2, 5, 7-11
decrease in IFN-γ production ([1]; Th1 conditions, APC/OVA, CD25+ T cells depleted (open triangles), various doses (FIG. 29A)): dose dependent
inhibition of IFN-γ production ([1]; Th1 conditions, APC/OVA, in the presence of CD4+CD25+ Treg cells (solid triangle) (FIG. 29A)): more profound
IL-10 production ([1]; Th1 conditions, APC/OVA, solid triangles (FIG. 29B)): increased IL-10 production in a dose dependent manner
disease scores, AA#80 ([2]; male DBA/1 mice, 20 mg/kg IP 3× weekly, 8 doses from Day 24, vs control groups (FIG. 8), 20 mg/kg): lower disease scores than mice in the control groups; also recorded: prolonged period of stable disease scores

Human B7-H4-Ig: human B7-H4 extracellular domain fused to hinge, CH2 and CH3 regions of human immunoglobulin Cγ1 chain; representative SEQ ID NOs:114-137
IFN-γ production in Th1 cells ([1]; 0, 0.1, 1 or 10 μg/mL in solution, anti-CD3/CD28 beads (FIG. 27)): reduced IFN-γ production
murine Th1 proliferation ([1]; 0, 0.1, 1 or 10 μg/mL in solution, anti-CD3/CD28 beads, dose dependent (FIG. 26)): blocked murine Th1/Th17 proliferation
clinical score ([2]; Day 27): 2 (2×) and 3
clinical score ([2]; Day 34): 5 and 4
clinical score ([2]; Day 41): 9 (2×) and 6
AA#80 CIA disease scores ([2]; Study Day 20): 4 (2×) and 2 (3×) and 3 (2×) and 5 (2×)
AA#80 CIA disease scores ([2]; Study Day 22): 4 (4×) and 3 and 5 (4×)
AA#80 CIA disease scores ([2]; Study Day 24): 4 (3×) and 5 (5×) and 2
AA#80 CIA disease scores ([2]; Study Day 27): 3 (3×) and 2 (5×) and 4
AA#80 CIA disease scores ([2]; Study Day 29): 2 (5×) and 3 and 1 and 5 (2×)
AA#80 CIA disease scores ([2]; Study Day 31): 2 (4×) and 3 and 1 and 4 (2×) and 5
AA#80 CIA disease scores ([2]; Study Day 34): 2 (2×) and 5 (3×) and 1 and 4 (2×) and 6
AA#80 CIA disease scores ([2]; Study Day 36): 3 and 7 (3×) and 4 (3×) and 5 and 6
AA#80 CIA disease scores ([2]; Study Day 38): 3 (4×) and 7 and 9 and 5 and 6 and 10 and 12
AA#80 CIA disease scores ([2]; Study Day 41): 4 and 9 (5×) and 6 and 10 and 13
AA#80 CIA disease scores ([2]; Study Day 44): 3 and 11 (3×) and 8 and 9 and 12 and 14 and 4

Reference: patent US9011853B2, “B7-H4 fusion proteins and methods of use thereof” (Amplimmune, Inc., priority 2009, dated 2015)
